Patent US20030232884A1, “New pharmaceutical formulation” (Critical Therapeutics, Inc., priority 2002, published 2003)

Test: Stability of ethyl pyruvate in three formulations as measured by pH change over time
Format: physicochemical
Procedure: Formulations comprising ethyl pyruvate at various concentrations ([…]) were prepared by dissolving ethyl pyruvate in either commercially available Ringer's Lactate solution (potassium chloride (0 to about 4 mM), sodium chloride (about 100 to about 156 mM), calcium chloride (about 2.5 mM to about 3.0 mM), and sodium lactate (about 25 mM to about 30 mM)) or Ringer-like solution (potassium chloride (0 to about 4 mM), sodium chloride (about 100 to about 156 mM) and calcium chloride (about 2.5 mM to about 3.0 mM)), or Intralipid™ (1 000 mL contain: purified soybean oil 100-300 g, purified egg phospholipids 12 g, glycerol anhydrous 22 g, water for injection q.s. ad 1 000 mL. pH was adjusted with sodium hydroxide to pH approximately 8. Osmolality was about 300 mOsm/kg water). Acidity of each solution was measured at 0, 5, 30 and 60 minutes, 2, 4, 24, and 48 hours after dissolution of ethyl pyruvate.

SMILES: CCOC(=O)C(C)=O [Ethyl Pyruvate, ethyl pyruvate]
- pH (Intralipid, EP 1 %, 0 min after dissolution): 6.8
- pH (Intralipid, EP 1 %, 5 min after dissolution): 6.8
- pH (Intralipid, EP 1 %, 30 min after dissolution): 6.8
- pH (Intralipid, EP 1 %, 60 min after dissolution): 6.5
- pH (Intralipid, EP 1 %, 2 h after dissolution): 6.5
- pH (Intralipid, EP 1 %, 4 h after dissolution): 6.5
- pH (Intralipid, EP 1 %, 24 h after dissolution): 6.5
- pH (Intralipid, EP 1 %, 48 h after dissolution): 6.5
- pH (Intralipid, EP 5 %, 0 min after dissolution): 6.8
- pH (Intralipid, EP 5 %, 5 min after dissolution): 6.8
- pH (Intralipid, EP 5 %, 30 min after dissolution): 6.5
- pH (Intralipid, EP 5 %, 60 min after dissolution): 6.0
- pH (Intralipid, EP 5 %, 2 h after dissolution): 6.0
- pH (Intralipid, EP 5 %, 4 h after dissolution): 6.0
- pH (Intralipid, EP 5 %, 24 h after dissolution): 5.5
- pH (Intralipid, EP 5 %, 48 h after dissolution): 5.0
- pH (Intralipid, EP 10 %, 0 min after dissolution): 6.8
- pH (Intralipid, EP 10 %, 5 min after dissolution): 6.5
- pH (Intralipid, EP 10 %, 30 min after dissolution): 6.0
- pH (Intralipid, EP 10 %, 60 min after dissolution): 6.0
- pH (Intralipid, EP 10 %, 2 h after dissolution): 6.0
- pH (Intralipid, EP 10 %, 4 h after dissolution): 5.5
- pH (Intralipid, EP 10 %, 24 h after dissolution): 4.0
- pH (Intralipid, EP 10 %, 48 h after dissolution): 4.0
- drop in pH (Lactated Ringers Balanced Salt Solution, 1%, 5% and 10% by weight, over a 48 hour period): relatively reduced drop in pH
- pH (Ringer' lactate, EP 1 %, 0 min after dissolution): 6.0
- pH (Ringer' lactate, EP 1 %, 5 min after dissolution): 6.0
- pH (Ringer' lactate, EP 1 %, 30 min after dissolution): 5.5
- pH (Ringer' lactate, EP 1 %, 60 min after dissolution): 5.5
- pH (Ringer' lactate, EP 1 %, 2 h after dissolution): 5.2
- pH (Ringer' lactate, EP 1 %, 4 h after dissolution): 5.2
- pH (Ringer' lactate, EP 1 %, 24 h after dissolution): 5.2
- pH (Ringer' lactate, EP 1 %, 48 h after dissolution): 5.2
- pH (Ringer' lactate, EP 5 %, 0 min after dissolution): 6.0
- pH (Ringer' lactate, EP 5 %, 5 min after dissolution): 5.5
- pH (Ringer' lactate, EP 5 %, 30 min after dissolution): 5.3
- pH (Ringer' lactate, EP 5 %, 60 min after dissolution): 5.2
- pH (Ringer' lactate, EP 5 %, 2 h after dissolution): 5.2
- pH (Ringer' lactate, EP 5 %, 4 h after dissolution): 5.2
- pH (Ringer' lactate, EP 5 %, 24 h after dissolution): 5.2
- pH (Ringer' lactate, EP 5 %, 48 h after dissolution): 5.2
- pH (Ringer' lactate, EP 10 %, 0 min after dissolution): 6.0
- pH (Ringer' lactate, EP 10 %, 5 min after dissolution): 5.3
- pH (Ringer' lactate, EP 10 %, 30 min after dissolution): 5.3
- pH (Ringer' lactate, EP 10 %, 60 min after dissolution): 5.2
- pH (Ringer' lactate, EP 10 %, 2 h after dissolution): 5.2
- pH (Ringer' lactate, EP 10 %, 4 h after dissolution): 5.2
- pH (Ringer' lactate, EP 10 %, 24 h after dissolution): 5.2
- pH (Ringer' lactate, EP 10 %, 48 h after dissolution): 5.0
- pH (Ringer' solution (no lactate), EP 1 %, 0 min after dissolution): 6.5
- pH (Ringer' solution (no lactate), EP 1 %, 5 min after dissolution): 6.5
- pH (Ringer' solution (no lactate), EP 1 %, 30 min after dissolution): 6.5
- pH (Ringer' solution (no lactate), EP 1 %, 60 min after dissolution): 5.5
- pH (Ringer' solution (no lactate), EP 1 %, 2 h after dissolution): 5.5
- pH (Ringer' solution (no lactate), EP 1 %, 4 h after dissolution): 5.5
- pH (Ringer' solution (no lactate), EP 1 %, 24 h after dissolution): 5.5
- pH (Ringer' solution (no lactate), EP 1 %, 48 h after dissolution): 5.5
- pH (Ringer' solution (no lactate), EP 5 %, 0 min after dissolution): 6.5
- pH (Ringer' solution (no lactate), EP 5 %, 5 min after dissolution): 6.0
- pH (Ringer' solution (no lactate), EP 5 %, 30 min after dissolution): 6.0
- pH (Ringer' solution (no lactate), EP 5 %, 60 min after dissolution): 5.2
- pH (Ringer' solution (no lactate), EP 5 %, 2 h after dissolution): 5.2
- pH (Ringer' solution (no lactate), EP 5 %, 4 h after dissolution): 4.0
- pH (Ringer' solution (no lactate), EP 5 %, 24 h after dissolution): 2.0
- pH (Ringer' solution (no lactate), EP 5 %, 48 h after dissolution): 2.0
- pH (Ringer' solution (no lactate), EP 10 %, 0 min after dissolution): 6.5
- pH (Ringer' solution (no lactate), EP 10 %, 5 min after dissolution): 5.5
- pH (Ringer' solution (no lactate), EP 10 %, 30 min after dissolution): 5.3
- pH (Ringer' solution (no lactate), EP 10 %, 60 min after dissolution): 5.2
- pH (Ringer' solution (no lactate), EP 10 %, 2 h after dissolution): 5.2
- pH (Ringer' solution (no lactate), EP 10 %, 4 h after dissolution): 2.0
- pH (Ringer' solution (no lactate), EP 10 %, 24 h after dissolution): 2.0
- pH (Ringer' solution (no lactate), EP 10 %, 48 h after dissolution): 2.0
- stability as indicated by the pH readings (in Ringer's Lactate solution): remains stable
